# Measured values reported in the NIST ThermoML archive (doi:10.1021/acs.jced.5b00444).
# Numbers after ± are expanded uncertainties.
# Assay: molar enthalpy of vaporization or sublimation
# Conditions: 298 K; Liquid; Chromatographic retention time
row,Structure (SMILES),molar enthalpy
1,"CCCCC(CC)COC(=O)c1ccccc1C(=O)OCC(CC)CCCC (configuration not stated) [bis(2-ethylhexyl) 1,2-benzenedicarboxylate]",27.94 ± 0.0239 kcal/mol
2,CCCCCCCCCCCCCCCCCCCCCC [docosane],26.29 ± 0.239 kcal/mol
3,CCCCCCCCCCCCCCCCCCCC [eicosane],24.833 ± 0.0239 kcal/mol
4,"CCCCCCCCOC(=O)c1ccccc1C(=O)OCCCCCCCC [dioctyl 1,2-benzenedicarboxylate]",29.33 ± 0.0478 kcal/mol
5,"COC(=O)c1ccccc1C(=O)OC [dimethyl 1,2-benzenedicarboxylate]",20.12 ± 0.0239 kcal/mol
6,CCOC(=O)c1ccccc1C(=O)OCC [diethyl phthalate],21.18 ± 0.0239 kcal/mol
7,CCCCOC(=O)c1ccccc1C(=O)OCCCC [dibutyl phthalate],23.73 ± 0.0239 kcal/mol
8,"CCCCOC(=O)c1ccccc1C(=O)OCc1ccccc1 [benzyl butyl 1,2-benzenedioate]",26.24 ± 0.0478 kcal/mol
9,CCCCCCCCCCCCCCCCCC(=O)OCC [ethyl octadecanoate],26.12 ± 0.12 kcal/mol

# Next, values leading:
row,molar enthalpy,Structure (SMILES)
1,26.554 ± 0.0239 kcal/mol,CCCCCCCCCCCCCCCCCCCC(=O)OC [methyl eicosanoate]
2,29.16 ± 0.239 kcal/mol,CCCCCCCCCCCCCCCCCCCCCCCCCC [hexacosane]
3,27.749 ± 0.0239 kcal/mol,CCCCCCCCCCCCCCCCCCCCCCCC [tetracosane]
4,25.789 ± 0.0239 kcal/mol,CCCCCCCCCCCCCCCCCC(=O)OC [methyl octadecanoate]
5,28.466 ± 0.0239 kcal/mol,CCCCCCCCCCCCCCCCCCCCCCCCC [pentacosane]
6,30.74 ± 0.12 kcal/mol,CCCCCCCCCCCCCCCCCCCCCCCCCCCC [octacosane]
7,27.796 ± 0.0239 kcal/mol,CCCCCCCCCCCCCCCCCCCCC(=O)OC [methyl heneicosanoate]
8,24.331 ± 0.0239 kcal/mol,CCCCCCCCCCCCCCCC(=O)OC [methyl hexadecanoate]
